In paper PMC7822874, “Chemoprotective antimalarials identified through quantitative high-throughput screening of Plasmodium blood and liver stage parasites” (Scientific Reports, 2021):

Assays:
[1] = system: Plasmodium falciparum Dd2 asexual blood stage parasites; test: microbe, parasite or virus in culture; parameters: species or system Plasmodium falciparum Dd2 in human erythrocytes; single determination (one 11-point concentration-response curve); settings: Plasmodium falciparum, DD2, Erythrocyte, 72 h; read-out: AC50
in vitro = settings: human
[2] = HepG2-A16-CD81EGFP cells, uninfected

SMILES | AC50 [1] | viability at 48 h, 1 µM (in vitro; [2]) | viability at 48 h, 3 µM (in vitro; [2]) | also measured
CC(C)Oc1ccc2c(c1)OC(c1ccccc1)(C(F)(F)F)NC2=O (centres unmarked) [MLS000392812-01] | 2.66 µM | 105% | 98% | –
O=S(=O)(c1ccc2ccccc2c1)N1CCN(C(S)=Nc2ccc(F)c(Cl)c2)CC1 [MLS000394708-01] | 1.06 µM | 111% | 98% | –
COc1ccc(CCNC(=O)c2cc(C(=O)c3cc(Cl)ccc3O)cn(CCc3ccc(OC)cc3)c2=O)cc1 [MLS000402334-01] | 3.76 µM | – | – | viability at 66 h (in vitro; [2]): 105%
COc1cc2c3nnc(-c4ccc(F)cc4)c-3cn(Cc3ccccc3F)c2cc1OC [MLS000419426-01] | 3.76 µM | 113% | 100% | –
COc1ccc(C2C(C(=O)N3CCCCC3)CC(=O)N2c2ccc(OC)cc2)cc1 (centres unmarked) [MLS000519691-01] | 7.5 µM | 85% | 91% | –
Cc1nccn1CC(O)Cn1c2ccccc2c2ccccc21 (centres unmarked) [MLS000527796-01] | 8.41 µM | 103% | – | viability at 48 h (in vitro; [2]): 103%
OC(CN1CCN(c2ccccn2)CC1)Cn1c2ccc(Cl)cc2c2cc(Cl)ccc21 (centres unmarked) [MLS000529159-01] | 2.99 µM | – | – | viability at 66 h (in vitro; [2]): 102%
Oc1ccc(Cl)cc1-c1cc(C(F)(F)C(F)F)nc(-c2ccccc2)n1 [MLS000530553-01] | 0.841 µM | 93% | 87% | –
CCOC(=O)c1c(-c2ccccc2)oc2ccc(O)c(CN3CCCC3)c12 [MLS000530619-01] | 0.596 µM | 98.8% | – | viability at 48 h (in vitro; [2]): 98.8%
CCc1cc2c(=O)c(-c3cnn(-c4ccccc4)c3)c(C)oc2c(CN2CCCCC2)c1O [MLS000530719-01] | 1.33 µM | 105% | 105% | –
O=c1c(=Cc2ccco2)sc2n1CN(c1cccc(Br)c1)CN=2 [MLS000535198-01] | 9.44 µM | 103% | 103% | –
CCOC(=O)c1c(C)[nH]c(C(=O)CSc2nnc(C3CC3)n2N)c1C [MLS000536141-01] | 1.5 µM | 92% | 89% | –
CCc1cc2c(Sc3nc4ccccc4s3)ncnc2s1 [MLS000544746-01] | 1.5 µM | 104% | 101% | –
CN1C2CCC1/C(=C\c1ccccc1)C(=O)/C2=C\c1ccccc1 [MLS000551165-01] | 2.11 µM | – | – | viability at 66 h (in vitro): 95.8%
Oc1ccc(Br)cc1-c1cc(-c2ccc(Cl)cc2)[nH]n1 [MLS000551526-01] | 2.66 µM | 88% | 87% | –
Cc1c(O)c(CN2CCCCC2)cc2c1oc(=O)c1ccccc12 [MLS000551544-01] | 0.75 µM | – | – | viability at 66 h (in vitro; [2]): 95.3%
O=C(CCl)N(c1ccccc1)c1c[nH]c2ccccc12 [MLS000554103-01] | 2.11 µM | 100% | 100% | –
CCC(O)(CC)C(=O)NN(C(=O)Nc1csc2c1CCCC2)c1ccccc1 [MLS000554206-01] | 2.99 µM | 98% | 95% | –
NNC(=O)CN1C(c2cccc(Cl)c2)=Nc2ccc(Br)cc2C1c1ccccc1 (centres unmarked) [MLS000558682-01] | 2.66 µM | 90% | 89% | –

SMILES | AC50 [1] | viability at 48 h, 1 µM (in vitro; [2]) | viability at 48 h, 3 µM (in vitro; [2]) | also measured
CCN(CC)CCN1C(=O)c2ccccc2NC1c1ccc(C)cc1 (centres unmarked) [MLS000558946-01] | 2.99 µM | 98% | 104% | –
O=C1c2ccccc2C2=Nc3ccccc3SC(c3ccccc3F)C12 (centres unmarked) [MLS000562246-01] | 4.73 µM | 99% | 95% | –
COc1ccc(NC2=C(c3ccc(OC)cc3)C(=O)c3ccccc32)cc1 [MLS000562793-01] | 5.96 µM | 91% | 90% | –
COc1cc2c(cc1O)CC[n+]1cc3c(OC)c(OC)ccc3cc1-2 [MLS000563433-01] | 7.5 µM | – | – | viability at 66 h (in vitro; [2]): 97.8%
COc1ccc(C2=C(Nc3ccc(C)cc3)c3ccccc3C2=O)cc1 [MLS000563980-01] | 4.73 µM | 96% | 90% | –
N#Cc1cc(C(=O)c2cc(Br)ccc2O)cn(C2CCCCC2)c1=O [MLS000565115-01] | 0.668 µM | 90% | 84% | –
Cc1cc(NC(=O)CN2CCN(c3ccc(O)cc3)CC2)no1 [MLS000565196-01] | 4.73 µM | 104% | 107% | –
CCN(CC)C1=NC(=[N+](CC)CC)c2ccccc21.[O-][Cl+3]([O-])([O-])O [MLS000565348-01] | 5.31 µM | – | – | viability (in vitro): 81.5%
Oc1cc2c(cc1CN1CCN(c3cccc(C(F)(F)F)c3)CC1)CCC2 [MLS000570420-01] | 0.944 µM | 102% | 101% | –
Cc1ccc(Cl)cc1N1CCN(Cc2cc3c(cc2O)CCC3)CC1 [MLS000572148-01] | 0.188 µM | 103% | 99% | –
CCOC(=O)C1=C(c2ccccc2)N=c2sc(=Cc3cc(OC)c(OC)c(OC)c3)c(=O)n2C1c1cccs1 (centres unmarked) [MLS000572607-01] | 5.96 µM | 82% | 81% | –
CCCCOc1ccc(C(=O)N/C(=C\c2cccc([N+](=O)[O-])c2)C(=O)OC(C)C)cc1 [MLS000574332-01] | 2.11 µM | 101% | 100% | –
COc1cc(NC(=O)c2cc3c(Cl)nc4ccccc4c3s2)cc(OC)c1OC [MLS000582472-01] | 4.73 µM | 90% | 84% | –
CC(C)Oc1ccc(CCc2nnc(S)n2Cc2ccccc2)cc1 [MLS000582839-01] | 5.31 µM | 101% | 103% | –
CC(NCc1ccc(Cl)cc1Cl)C(O)c1ccccc1 (centres unmarked) [MLS000582862-01] | 4.73 µM | – | – | viability at 48 h, 1 µM (in vitro): 120%; viability at 48 h, 3 µM (in vitro): 104%
Cc1cc(C)cc(/N=C/c2[nH]c3ccc(Br)c(Cl)c3c2O)c1 [MLS000586008-01] | 11.9 µM | 104% | 99% | –
Cc1cc(Nc2ccccc2)nc2cc(O)ccc12 [MLS000586979-01] | 0.422 µM | 100% | 100% | –
Cc1ccccc1Nc1cc(C)c2c(O)cccc2n1 [MLS000586981-01] | 5.31 µM | 105% | 100% | –
CCOc1ccc(NC2=C(OC)C(=O)c3ccccc3C2=O)cc1 [MLS000588108-01] | 0.376 µM | 101% | 98% | –

SMILES | AC50 [1] | viability at 48 h, 1 µM (in vitro; [2]) | viability at 48 h, 3 µM (in vitro; [2]) | also measured
Cc1cc(Nc2cccc(F)c2)nc(NCc2ccccc2)n1 [MLS000589387-01] | 8.41 µM | 98% | 87% | –
CC1CCCCN1Cc1c(O)ccc2c(=O)c(-c3nc4ccccc4s3)c(N)oc12 (centres unmarked) [MLS000591245-01] | 1.06 µM | 98% | 95% | –
CCOC(=O)c1nc2cc3n(c(CC(C)C)c-2c1C)CC(C)=C3C [MLS000594428-01] | 7.5 µM | 108% | – | viability at 48 h (in vitro; [2]): 108%
CCOCc1cnc(C)nc1NCC(=O)c1c(C)[nH]c2cc(C)ccc12 [MLS000595215-01] | 4.22 µM | 97% | 94% | –
O=C(CN1C2=NCCCN2c2ccccc21)c1ccc(Cl)cc1Cl [MLS000662689-01] | 6.68 µM | 99% | 94% | –
O=C(/C=C/c1ccco1)NC(S)=Nc1ccccc1N1CCCC1 [MLS000663784-01] | 2.66 µM | 107% | – | viability at 48 h (in vitro; [2]): 107%
OC(CNCc1cccc(Cl)c1)c1ccccc1 (centres unmarked) [MLS000674343-01] | 4.73 µM | – | – | viability at 66 h (in vitro; [2]): 106%
CN(C)c1cc[n+](CC(=O)c2ccc(Br)cc2)cc1 [MLS000678949-01] | 7.5 µM | – | – | viability at 66 h (in vitro; [2]): 103%
Cc1nc(N2CCC(C)CC2)c2c(C)c(C(=O)Nc3ccc(C(F)(F)F)cc3)sc2n1 [MLS000682669-01] | 7.5 µM | 108% | 99% | –
CC1Cc2nc(SCC(=O)Nc3ccc4c(c3)OCO4)n(-c3ccc(F)cc3)c(=O)c2S1 (centres unmarked) [MLS000685016-01] | 2.99 µM | 97% | 93% | –
COc1cccc(NC(=O)c2ccc(NCCCN3CCC(C)CC3)c([N+](=O)[O-])c2)c1 [MLS000689409-01] | 7.5 µM | – | – | viability at 66 h (in vitro; [2]): 108%
CCCN(CCC)CCCNc1ccc(C(=O)Nc2cccc(OC)c2)cc1[N+](=O)[O-] [MLS000689411-01] | 5.96 µM | 106% | 104% | –
Cc1ccc(NC(=O)c2ccc(NCCCN3CCC(C)CC3)c([N+](=O)[O-])c2)cc1F [MLS000689412-01] | 6.68 µM | 106% | 104% | –
CCC(=O)N(C1=C(NC(C)C)C(=O)c2ccccc2C1=O)C(C)C [MLS000696323-01] | 2.37 µM | 106% | 105% | –
CCCn1c2c(c(=N)c3c1CCC3)CCCC2 [MLS000702605-01] | 10.6 µM | – | – | viability at 66 h (in vitro; [2]): 93.8%
Cc1nn(-c2nnc(NCc3ccccc3)nn2)c(C)c1Br [MLS000704225-01] | 0.841 µM | 105% | 92% | –
CCCCCSc1cc(O)c(C(CNC)C(C)C)cc1OC (centres unmarked) [MLS000704380-01] | 0.168 µM | – | – | viability at 48 h, 1 µM (in vitro): 106%; viability at 48 h, 3 µM (in vitro): 101%
CCOC(=O)c1c(CN(C)C)n(-c2ccc(C)cc2)c2cc(Br)c(O)cc12 [MLS000705141-01] | 4.22 µM | 101% | 101% | –
CC(CCc1ccccc1)NCC(O)c1cccc([N+](=O)[O-])c1 (centres unmarked) [MLS000712395-01] | 0.473 µM | 104% | 106% | –
